Assay results as given in patent publication US20250332173A1, “COMPOUNDS AND METHODS FOR MODULATING NUCLEIC ACID SPLICING” (REMIX THERAPEUTICS INC., priority 2021, published 2025).
Where two headings read alike, the source gives them in different places.

Experiments:
Type in all cases: cell-based, human
MYB mRNA = experiment: RT-qPCR splicing assay, MYB canonical junction (CJ) and alternative junction (AJ) mRNA; details: Homo sapiens; for AC50: increase in MYB alternative junction (AJ) mRNA, read-out: MYB AJ AC50
Procedure, shortened: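 Following a 24-hour incubation of A673 or K562 cells with serially diluted compound (3-fold steps, highest final 10 uM), the lysates undergo cDNA synthesis plus qPCR. Canonical and alternative junctions are each quantified against PPIA, GAPDH or GUSB.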

HTT = experiment: HiBiT protein abundance assay, HTT HiBiT K562 cell line; details: HiBiT K562 cell line, 24 hours, top dose 10 μM; read-out: Effect on protein abundance, HTT (IC50 category)
Procedure, shortened: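 Endogenous targets in K562 knock-in lines carried a HiBiT tag and were treated for 24 h at 37 °C with 10-point 3-fold dilutions (top 10 μM final, DMSO ≤0.25%). Abundance was read as lytic Nano-Glo HiBiT luminescence. IC50 came from a four-parameter logistic fit of normalized response.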

Target C = experiment: HiBiT protein abundance assay, Target C (Promega Nano-Glo HiBiT Lytic Detection System, knock-in K562 cell line); details: Homo sapiens, K562, 24 h, HiBiT K562 cell line, 24 hours, top dose 10 μM; read-out: Effect on protein abundance, Target C (IC50 category)
Procedure, shortened: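 HiBiT knock-in K562 cells (10,000/well) were treated for 24 h at 37 °C with a 10-point 3-fold dilution series, top final concentration 10 μM, DMSO ≤0.25%. Lytic HiBiT luminescence was read, normalized to unmodified K562 and DMSO-treated controls, and IC50 was interpolated from a four-parameter logistic fit.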

[1] = Table 5 panel, canonical junction qPCR, compound concentration having 50% response in CJ decrease, read-out: MYB IC50 (decrease in CJ mRNA levels)
[2] = decrease in MYB canonical junction (CJ) mRNA, RT-qPCR, read-out: MYB CJ IC50

SMILES	IC50 (MYB mRNA; [1]) [µM]	IC50 (MYB mRNA; [2]) [µM]	IC50 (HTT) [µM]	IC50 (Target C) [µM]	AC50 (MYB mRNA; RT-qPCR) [µM]
Cc1cn2cc(-c3cc(F)c4c(=O)n([C@H]5CNCC[C@@H]5O)cnc4c3)cc(F)c2n1 [Compound 348, 5-fluoro-7-{8-fluoro-2-methylimidazo[1,2-a]pyridin-6-yl}-3-[(3S,4S)-4-hydroxypiperidin-3-yl]quinazolin-4-one]	> 10	> 10	> 10	> 10	> 10
Cn1cc2cc(-c3cc(F)c4c(=O)n(C5CCNCC5)cnc4c3)cc(F)c2n1 [Compound 314]	1 to 10	1 to 10	1 to 10	> 10	1 to 10
Cc1cc(-c2ccc3c(=O)n(C4CCN(C)CC4)cnc3c2)cc2cn(C)nc12 [Compound 156]	1 to 10	1 to 10	1 to 10	> 10	1 to 10
Cc1nc2c(F)cc(-c3ccc4c(=O)n(C5CCN(C)CC5)cnc4c3)cc2s1 [Compound 301]	1 to 10	1 to 10	1 to 10	1 to 10	1 to 10
Cn1cc2cc(-n3cnc4cc(N5CCNCC5)ccc4c3=O)ccc2n1 [Compound 153]	1 to 10	> 10	> 10	> 10	> 10
Cc1cn2cc(-c3cc(F)c4c(=O)n(C5CNCCC5=O)cnc4c3)cc(F)c2n1 (centres unmarked) [Compound 352, 5-fluoro-7-{8-fluoro-2-methylimidazo[1,2-a]pyridin-6-yl}-3-(4-oxopiperidin-3-yl)quinazolin-4-one]	> 10	> 10	> 10	> 10	> 10
CNc1cc(-c2cc(C#N)c3nc(C)cn3c2)cc2ncn(C3CCNCC3)c(=O)c12 [Compound 363, 2-methyl-6-[5-(methylamino)-4-oxo-3-(piperidin-4-yl)quinazolin-7-yl]imidazo[1,2-a]pyridine-8-carbonitrile]	> 10	> 10	> 10	1 to 10	> 10
CN1CCN(c2ccc3c(=O)n(-c4ccc5nn(C)cc5c4)cnc3c2)CC1 [Compound 152]	> 10	> 10	> 10	> 10	1 to 10
Cc1cc(-c2cnc3c(=O)n(C4CCNCC4)cnc3c2)cc2cn(C)nc12 [Compound 311]	1 to 10	1 to 10	1 to 10	1 to 10	1 to 10
Cc1cc(-c2ccc3c(=O)n(C4CC(C)(C)NC(C)(C)C4)cnc3c2)cc2cn(C)nc12 [Compound 157]	1 to 10	1 to 10	1 to 10	1 to 10	1 to 10
Cc1cn2cc(-c3ccc4c(=O)n(C5CCN(C)CC5)cnc4c3)nc2c(C)n1 [Compound 302]	1 to 10	1 to 10	1 to 10	1 to 10	1 to 10
Cc1ncc(-c2ccc3c(=O)n(C4CCNCC4)cnc3c2)cn1 [Compound 354, 7-(2-methylpyrimidin-5-yl)-3-(piperidin-4-yl)quinazolin-4(3H)-one]	1 to 10	1 to 10	1 to 10	1 to 10	1 to 10
Cc1cn2nc(-c3ccc4c(=O)n(C5CCNCC5)cnc4c3)nc2c(C)n1 [Compound 287, 7-{6,8-dimethyl-[1,2,4]triazolo[1,5-a]pyrazin-2-yl}-3-(piperidin-4-yl)quinazolin-4-one]	0.1 to 1	0.1 to 1	0.1 to 1	0.1 to 1	0.1 to 1
Cc1cn2nc(-c3ccc4c(=O)n(C5CCNCC5)cnc4c3)cc2c(C)n1 [Compound 298]	0.1 to 1	0.1 to 1	0.1 to 1	1 to 10	0.1 to 1
O=c1c2ccc(-c3cn[nH]c3)cc2ncn1C1CCNCC1 [Compound 284]	> 10	> 10	> 10	> 10	> 10
COc1cc(-c2cc(F)c3c(=O)n(C4CCNCC4)cnc3c2)cnn1 [Compound 320]	> 10	> 10	> 10	> 10	> 10
Cc1cn2nc(-c3ccc4c(c3)CCN(C3CCNC(C)(C)C3)C4=O)cc(C)c2n1 (centres unmarked) [Compound 267]	1 to 10	< 0.1	0.1 to 1	1 to 10	1 to 10
Cc1cn2cc(-c3ccc4c(=O)n(C5CCN(C)CC5)cnc4c3)ncc2n1 [Compound 308]	1 to 10	1 to 10	1 to 10	1 to 10	1 to 10

Now from value to molecule, other results behind:

IC50 (MYB mRNA; [1]) [µM]	IC50 (MYB mRNA; [2]) [µM]	IC50 (HTT) [µM]	IC50 (Target C) [µM]	SMILES	AC50 (MYB mRNA; RT-qPCR) [µM]
< 0.1	< 0.1	0.1 to 1	0.1 to 1	Cc1cn2cc(-c3cc(F)c4c(=O)n(C5=CCNCC5)cnc4c3)cc(F)c2n1 [Compound 342]	< 0.1
< 0.1	< 0.1	> 10	> 10	Cc1cn2nc(-c3cc(N(C)C)c4c(=O)n(C5CCNC6(CC6)C5)cnc4c3)cc(C)c2n1 (centres unmarked) [Compound 345]	< 0.1
0.1 to 1	0.1 to 1	1 to 10	1 to 10	Cn1cc2cc(-c3cc(F)c4c(=O)n(C5CCNCC5)cnc4c3)c(F)cc2n1 [Compound 315]	0.1 to 1
< 0.1	< 0.1	0.1 to 1	< 0.1	Cc1cn2nc(-c3ccc4c(=O)n([C@@H]5CCNC6(CC6)C5)cnc4c3)cc(C)c2n1 [Compound 350, 3-[(7R)-4-azaspiro[2.5]octan-7-yl]-7-{2,8-dimethylimidazo[1,2-b]pyridazin-6-yl}quinazolin-4-one]	< 0.1
0.1 to 1	0.1 to 1	< 0.1	0.1 to 1	Cc1cn2nc(-c3ccc4c(=O)n(C5CCCNCC5)ncc4c3)cc(C)c2n1 (centres unmarked) [Compound 283]	0.1 to 1
< 0.1	< 0.1	< 0.1	0.1 to 1	Cc1cn2nc(-c3cc(F)c4c(=O)n(C5CCNCC5)cnc4c3)cc2c(C)n1 [Compound 318]	< 0.1
0.1 to 1	< 0.1	0.1 to 1	0.1 to 1	Cc1cn2cc(-c3ccc4c(=O)n(C5CCNCC5)cnc4c3)cc(Cl)c2n1 [Compound 291]	0.1 to 1
< 0.1	< 0.1	< 0.1	< 0.1	Cc1cn2nc(-c3cc(F)c4c(=O)n(C5CCNC6(CC6)C5)ncc4c3)cc(C)c2n1 (centres unmarked) [Compound 312]	< 0.1
0.1 to 1	0.1 to 1	0.1 to 1	1 to 10	Cc1cn2cc(-c3ccc4c(=O)n([C@@H]5CCN[C@@H](C)C5)cnc4c3)cc(F)c2n1 [Compound 293]	0.1 to 1
0.1 to 1	0.1 to 1	0.1 to 1	1 to 10	Cc1cn2nc(-c3ccc4c(=O)n([C@H]5CCNC6(CC6)C5)cnc4c3)cc(C)c2n1 [Compound 349, 3-[(7S)-4-azaspiro[2.5]octan-7-yl]-7-{2,8-dimethylimidazo[1,2-b]pyridazin-6-yl}quinazolin-4-one]	0.1 to 1
0.1 to 1	< 0.1	< 0.1	0.1 to 1	CCN1CCC(n2ncc3cc(-c4cc(C)c5nc(C)cn5n4)ccc3c2=O)CC1 [Compound 266]	0.1 to 1
< 0.1	< 0.1	0.1 to 1	0.1 to 1	Cc1cn2cc(-c3cc(F)c4c(=O)n([C@H]5CCN[C@@H](C)C5)cnc4c3)cc(F)c2n1 (relative stereo) [Compound 343, cis-5-fluoro-7-(8-fluoro-2-methylimidazo[1,2-a]pyridin-6-yl)-3-(2-methylpiperidin-4-yl)quinazolin-4(3H)-one]	< 0.1
< 0.1	< 0.1	< 0.1	< 0.1	Cc1cn2nc(-c3cc(C)c4c(=O)n(C5CCNCC5)cnc4c3)cc(C)c2n1 [Compound 355]	< 0.1
< 0.1	< 0.1	0.1 to 1	0.1 to 1	Cc1cn2cc(-c3cc(F)c4c(=O)n(N5CCNCC5)cnc4c3)cc(F)c2n1 [Compound 340, 5-fluoro-7-{8-fluoro-2-methylimidazo[1,2-a]pyridin-6-yl}-3-(piperazin-1-yl)quinazolin-4-one]	< 0.1
< 0.1	0.1 to 1	0.1 to 1	0.1 to 1	Cc1cn2cc(-c3cc(F)c4c(=O)n(C5CCNCC5)cnc4c3)cc(C)c2n1 [Compound 317]	< 0.1
< 0.1	< 0.1	1 to 10	1 to 10	Cc1cn2cc(-c3cc(F)c4c(=O)n([C@H]5CCNC[C@H]5F)cnc4c3)cc(F)c2n1 [Compound 338]	< 0.1
